For 3 compounds, EC50, IC50 and AC50 results are on record in ChEMBL document CHEMBL1201862, “PubChem BioAssay data set” (2004).

The structures appear in SMILES notation. Calls of active or inactive are those of the source. Bounds are passed on as bounds.

In data set [1] the test system is BJ. Kind of data set: cytotoxicity toward BJ-TERT-LT-ST fibroblasts, dose response, cell-based, RAS-independent, luminescence (AID 1935).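 Also: BJ fibroblasts immortalized with TERT plus LT and ST oncogenes.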 It is filed as functional. As to conditions: Homo sapiens.
Data set [2] in a line: inhibitors of SNCA 5'UTR-driven translation, confirmation, luminescence, H4 neuroglioblastoma cells, dose confirmation (AID 2454).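 Also: H4 neuroglioblastoma cells carrying an alpha-synuclein 5'UTR luciferase reporter; potency for inhibition of the luciferase signal.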 It is filed as functional, cell-based.
A short description of data set [3]: cells. It counts as functional, cell-based.
The nature of data set [4]: luciferase reporter signal reduction – luminescence, H4-C neuroglioblastoma cells, dose response (AID 2458).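 Also: H4 neuroglioblastoma cells stably carrying a luciferase reporter gene fusion.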 It counts as functional, cell-based.
Data set [5] is described as follows: inhibitors of SNCA 5'UTR-driven reporter translation, confirmation, H4 neuroglioma cells, luminescence (AID 1988). It is filed as functional, cell-based.
Data set [6] relates to BJ. Put plainly: cells. It is filed as functional, cell-based. The settings on record: Homo sapiens.
The nature of data set [7]: Luminescence Cell-Based Dose HTS Response to Identify Inhibitors of 5'UTR Stem-Loop Driven Prion Protein mRNA Translation in H4-C Neuroglioblastoma Cells. [Related pubchem assays (depositor defined):AID1814, AID1827]. It counts as functional.
Data set [8] is described as follows: Luminescence Cell-Based Dose Response HTS to Identify Inhibitors of 5'UTR Stem-Loop Driven Prion Protein mRNA Translation in H4 Neuroglioblastoma Cells. [Related pubchem assays: 1827 (Project Summary), 1813 (Primary HTS)]. It counts as functional.
Data set [9] can be described thus: Luminescence Cell-Based Dose Response HTS to Identify Inhibitors of Luciferase Translation or Activity in H4-C Neuroglioblastoma Cells. [Related pubchem assays: 1813 (Primary HTS), 1827 (Project Summary)]. It is filed as functional.
Data set [10] is described as follows: cytotoxicity toward DRD oncogenic fibroblasts, dose response, cell-based, non-viral oncogenic, luminescence (AID 1934). It is filed as functional. The settings on record: Homo sapiens.
The nature of data set [11]: cytotoxicity in HEK-293T cells, dose response, cytotoxicity control for TCR NF-kB inhibitor project, luminescence, T-cell screen hits (AID 489026).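 Also: cells exposed to compound about 14 hours before the viability readout.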 It counts as functional, cell-based.
Data set [12] is described as follows: inhibitors of firefly luciferase expression or activity, dose response, H4 neuroglioma cells, luminescence (AID 1990). It counts as functional, cell-based.
The nature of data set [13]: Luminescence Cell-Based Dose Confirmation HTS to Identify Inhibitors of 5'UTR Stem-Loop Driven Alpha-Synuclein mRNA Translation in H4 Neuroglioblastoma Cells. [Related pubchem assays: 1827 (Project Summary), 1813 (Primary HTS)]. It is filed as functional.
Data set [14] can be described thus: Luminescence Cell-Based Dose Retest to Confirm Activators of 5'UTR Stem-Loop Driven Alpha-Synuclein mRNA Translation in H4 Neuroglioblastoma Cells. [Related pubchem assays (depositor defined):AID1813, AID1829]. It counts as functional.
A short description of data set [15]: Luminescence Cell-Based Dose Response HTS to Identify Activators of 5'UTR Stem-Loop Driven Prion Protein mRNA Translation in H4-C Neuroglioblastoma Cells. [Related pubchem assays: 1829 (Project Summary), 1814 (Primary HTS)]. It is filed as functional.
The nature of data set [16]: Luminescence Cell-Based Dose Response HTS to Identify Activators of Luciferase Translation or Activity in H4-C Neuroglioblastoma Cells. [Related pubchem assays: 1829 (Project Summary), 1814 (Primary HTS)]. It is filed as functional.
In data set [17] the target is Peroxisome proliferator-activated receptor gamma/Nuclear receptor coactivator 3 (Homo sapiens, UniProt P37231). Kind of data set: TR-FRET dose response biochemical High Throughput Screening assay for agonists of the steroid receptor coactivator 3 (SRC-3) recruitment by the peroxisome proliferator-activated receptor gamma (PPAR gamma): non-selective agonists. [Related pubchem assays: 1301 (Confirmation screen.), 1048 (Primary screen.)]. It counts as functional.

Data set [18] concerns the target Peroxisome proliferator-activated receptor gamma/Nuclear receptor coactivator 1 (Homo sapiens, UniProt P37231). Kind of data set: TR-FRET dose response biochemical High Throughput Screening assay for agonists of the steroid receptor coactivator 1 (SRC-1) recruitment by the peroxisome proliferator-activated receptor gamma (PPAR gamma): non-selective agonists. [Related pubchem assays (depositor defined):AID1300, AID1808, AID504735, AID631]. It counts as protein assay.

Data set [19] concerns the target Cytochrome P450 2C9 (Homo sapiens, UniProt P11712).
For data set [20], the target named is T1, Cytochrome P450 1A2 (Homo sapiens, UniProt P05177).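 Also: PubChem cytochrome P450 panel assay, CYP1A2 panel member.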
T1 sequence (P05177 whole entry): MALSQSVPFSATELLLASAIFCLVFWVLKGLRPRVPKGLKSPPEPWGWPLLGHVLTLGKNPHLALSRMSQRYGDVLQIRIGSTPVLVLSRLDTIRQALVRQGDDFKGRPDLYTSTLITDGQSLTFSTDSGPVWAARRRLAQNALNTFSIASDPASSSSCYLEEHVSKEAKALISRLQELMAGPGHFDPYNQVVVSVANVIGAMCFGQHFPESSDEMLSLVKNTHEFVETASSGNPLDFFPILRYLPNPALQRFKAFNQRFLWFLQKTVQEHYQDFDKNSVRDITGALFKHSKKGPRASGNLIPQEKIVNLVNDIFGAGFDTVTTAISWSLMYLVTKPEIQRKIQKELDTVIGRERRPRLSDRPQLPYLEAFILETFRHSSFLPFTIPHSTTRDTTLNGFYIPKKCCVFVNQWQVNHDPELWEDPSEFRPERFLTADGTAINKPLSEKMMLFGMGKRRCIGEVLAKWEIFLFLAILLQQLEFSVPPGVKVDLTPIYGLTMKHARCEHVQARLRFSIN

The target in data set [21] is Peroxisome proliferator-activated receptor gamma/Nuclear receptor coactivator 2 (Homo sapiens, UniProt P37231). Kind of data set: TR-FRET dose response biochemical High Throughput Screening assay for agonists of the steroid receptor coactivator 2 (SRC-2) recruitment by the peroxisome proliferator-activated receptor gamma (PPAR gamma): non-selective agonists. [Related pubchem assays: 1297, 1032 ]. It counts as functional.
Peroxisome proliferator-activated receptor gamma/Nuclear receptor coactivator 2, sequence (P37231 whole entry): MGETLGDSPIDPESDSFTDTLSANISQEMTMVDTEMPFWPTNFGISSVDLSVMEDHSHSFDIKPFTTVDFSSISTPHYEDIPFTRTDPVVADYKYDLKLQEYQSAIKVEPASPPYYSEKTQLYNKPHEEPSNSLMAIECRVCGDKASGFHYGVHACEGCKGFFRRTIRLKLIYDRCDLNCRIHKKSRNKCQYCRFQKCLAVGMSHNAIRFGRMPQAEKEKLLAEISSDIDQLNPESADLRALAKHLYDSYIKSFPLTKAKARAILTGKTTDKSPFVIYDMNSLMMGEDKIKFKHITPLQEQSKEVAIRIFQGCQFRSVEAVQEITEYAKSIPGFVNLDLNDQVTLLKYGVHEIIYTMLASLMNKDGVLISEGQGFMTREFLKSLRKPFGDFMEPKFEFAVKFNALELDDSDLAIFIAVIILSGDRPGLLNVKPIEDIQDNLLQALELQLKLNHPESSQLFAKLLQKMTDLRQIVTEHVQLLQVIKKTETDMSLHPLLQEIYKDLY
Peroxisome proliferator-activated receptor gamma/Nuclear receptor coactivator 2, sequence (Q15596 whole entry, further chain): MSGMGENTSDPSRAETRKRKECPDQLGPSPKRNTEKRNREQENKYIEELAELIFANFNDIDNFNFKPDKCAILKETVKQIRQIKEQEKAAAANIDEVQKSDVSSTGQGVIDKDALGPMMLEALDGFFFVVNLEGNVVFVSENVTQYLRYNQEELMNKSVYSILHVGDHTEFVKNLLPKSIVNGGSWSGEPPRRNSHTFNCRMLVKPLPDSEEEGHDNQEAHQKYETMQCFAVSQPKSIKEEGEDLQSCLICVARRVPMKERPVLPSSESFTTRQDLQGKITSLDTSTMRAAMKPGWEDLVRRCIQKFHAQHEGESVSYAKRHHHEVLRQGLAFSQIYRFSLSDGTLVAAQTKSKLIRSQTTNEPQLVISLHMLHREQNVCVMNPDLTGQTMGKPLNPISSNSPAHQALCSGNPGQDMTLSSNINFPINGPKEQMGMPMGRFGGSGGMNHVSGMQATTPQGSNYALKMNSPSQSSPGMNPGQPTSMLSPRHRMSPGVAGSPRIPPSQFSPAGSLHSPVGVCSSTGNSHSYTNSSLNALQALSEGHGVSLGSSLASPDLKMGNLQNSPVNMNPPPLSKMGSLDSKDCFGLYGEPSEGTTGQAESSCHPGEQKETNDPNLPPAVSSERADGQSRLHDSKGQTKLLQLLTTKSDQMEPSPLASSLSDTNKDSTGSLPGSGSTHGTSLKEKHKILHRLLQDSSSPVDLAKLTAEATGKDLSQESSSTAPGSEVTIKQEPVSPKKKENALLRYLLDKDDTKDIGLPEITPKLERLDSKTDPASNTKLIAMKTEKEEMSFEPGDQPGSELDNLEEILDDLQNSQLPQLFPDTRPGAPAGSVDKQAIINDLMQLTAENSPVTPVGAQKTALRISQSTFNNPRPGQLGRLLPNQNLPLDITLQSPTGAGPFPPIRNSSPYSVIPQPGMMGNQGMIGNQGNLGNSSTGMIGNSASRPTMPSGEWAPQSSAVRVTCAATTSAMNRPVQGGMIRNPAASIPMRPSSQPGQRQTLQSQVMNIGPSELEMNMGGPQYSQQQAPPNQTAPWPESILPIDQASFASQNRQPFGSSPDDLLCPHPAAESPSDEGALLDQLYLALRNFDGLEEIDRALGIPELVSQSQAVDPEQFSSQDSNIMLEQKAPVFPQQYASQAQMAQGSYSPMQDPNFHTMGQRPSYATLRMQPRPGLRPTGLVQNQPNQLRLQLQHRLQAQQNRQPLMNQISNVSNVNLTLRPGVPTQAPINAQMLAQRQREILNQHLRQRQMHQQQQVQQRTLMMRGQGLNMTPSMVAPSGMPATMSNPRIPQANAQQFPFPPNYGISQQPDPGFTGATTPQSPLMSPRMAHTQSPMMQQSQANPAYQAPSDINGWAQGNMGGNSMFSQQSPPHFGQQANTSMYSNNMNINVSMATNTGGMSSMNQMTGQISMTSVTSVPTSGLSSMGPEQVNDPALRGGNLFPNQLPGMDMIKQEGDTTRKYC

Data set [22] concerns the target T2, Alkaline phosphatase, tissue-nonspecific isozyme (Homo sapiens, UniProt P05186).
T2 sequence (P05186 whole entry): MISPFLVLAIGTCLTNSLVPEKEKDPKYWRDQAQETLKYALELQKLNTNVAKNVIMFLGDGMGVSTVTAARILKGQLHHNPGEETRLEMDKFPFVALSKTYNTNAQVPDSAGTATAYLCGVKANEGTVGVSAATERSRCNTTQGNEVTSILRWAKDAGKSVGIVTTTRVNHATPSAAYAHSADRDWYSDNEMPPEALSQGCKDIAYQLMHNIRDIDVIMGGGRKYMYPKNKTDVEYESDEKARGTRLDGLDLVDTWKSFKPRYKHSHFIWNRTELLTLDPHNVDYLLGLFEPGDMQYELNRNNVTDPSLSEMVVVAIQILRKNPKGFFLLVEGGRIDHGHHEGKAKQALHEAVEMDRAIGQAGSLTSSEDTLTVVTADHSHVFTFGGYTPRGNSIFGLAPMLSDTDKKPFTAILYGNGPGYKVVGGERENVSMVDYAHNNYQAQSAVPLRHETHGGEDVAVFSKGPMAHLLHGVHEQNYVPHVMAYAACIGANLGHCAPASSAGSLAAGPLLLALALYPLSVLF
Kind of data set: TNAP enzyme inhibition by screening hits, dose response, selectivity assay for mouse IAP inhibitor project, biochemical, human TNAP, uHTS hits (AID 488906). It counts as functional.

Data set [23] is described as follows: Luminescence Cell-Based Dose Confirmation to Identify Activators of 5'UTR Stem-Loop Driven Alpha-Synuclein mRNA Translation in H4 Neuroglioblastoma Cells. [Related pubchem assays: 1829 (Project Summary), 1814 (Primary HTS)]. It is filed as functional.
Data set [24] deals with Intestinal-type alkaline phosphatase (Homo sapiens, UniProt P09923). Put plainly: inhibition of human intestinal alkaline phosphatase – biochemical, dose response (AID 488876). It counts as functional.
Intestinal-type alkaline phosphatase (Homo sapiens, UniProt P09923), sequence (P09923 whole entry): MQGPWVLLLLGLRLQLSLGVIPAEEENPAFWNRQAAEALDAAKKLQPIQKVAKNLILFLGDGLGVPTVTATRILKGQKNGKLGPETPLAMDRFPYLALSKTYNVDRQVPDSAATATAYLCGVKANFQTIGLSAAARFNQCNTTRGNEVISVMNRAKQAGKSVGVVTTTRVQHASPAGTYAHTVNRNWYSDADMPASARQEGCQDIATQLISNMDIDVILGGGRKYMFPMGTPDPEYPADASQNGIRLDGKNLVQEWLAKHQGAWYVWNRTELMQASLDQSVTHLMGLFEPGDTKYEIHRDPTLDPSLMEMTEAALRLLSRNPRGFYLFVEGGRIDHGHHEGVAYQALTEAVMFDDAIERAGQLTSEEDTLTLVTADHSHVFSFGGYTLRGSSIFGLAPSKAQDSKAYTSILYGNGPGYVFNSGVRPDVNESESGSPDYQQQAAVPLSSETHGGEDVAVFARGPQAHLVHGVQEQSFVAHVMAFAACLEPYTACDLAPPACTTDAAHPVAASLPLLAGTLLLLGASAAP
Data set [25] addresses Intestinal-type alkaline phosphatase (Mus musculus, UniProt P24822). Kind of data set: PubChem AID 488785. It is filed as functional.
Data set [26] concerns H4. Kind of data set: Luminescence Cell-Based Dose Response HTS to Identify Activators of 5'UTR Stem-Loop Driven Prion Protein mRNA Translation in H4 Neuroglioblastoma Cells. [Related pubchem assays: 1829 (Project Summary), 1814 (Primary HTS)]. It counts as functional. The settings on record: Homo sapiens.
Data set [27] is described as follows: Luminescence Cell-Based Dose Response to Identify Activators of Luciferase Translation or Activity in H4-C Neuroglioblastoma Cells. [Related pubchem assays: 1829 (Project Summary), 1814 (Primary HTS)]. It is filed as functional.
Data set [28] deals with Mitogen-activated protein kinase 10 (Homo sapiens, UniProt P53779). Put plainly: Dose response biochemical screening assay for inhibitors of c-Jun N-Terminal Kinase 3 (JNK3). [Related pubchem assays: 746 ].
Mitogen-activated protein kinase 10, sequence (P53779 whole entry): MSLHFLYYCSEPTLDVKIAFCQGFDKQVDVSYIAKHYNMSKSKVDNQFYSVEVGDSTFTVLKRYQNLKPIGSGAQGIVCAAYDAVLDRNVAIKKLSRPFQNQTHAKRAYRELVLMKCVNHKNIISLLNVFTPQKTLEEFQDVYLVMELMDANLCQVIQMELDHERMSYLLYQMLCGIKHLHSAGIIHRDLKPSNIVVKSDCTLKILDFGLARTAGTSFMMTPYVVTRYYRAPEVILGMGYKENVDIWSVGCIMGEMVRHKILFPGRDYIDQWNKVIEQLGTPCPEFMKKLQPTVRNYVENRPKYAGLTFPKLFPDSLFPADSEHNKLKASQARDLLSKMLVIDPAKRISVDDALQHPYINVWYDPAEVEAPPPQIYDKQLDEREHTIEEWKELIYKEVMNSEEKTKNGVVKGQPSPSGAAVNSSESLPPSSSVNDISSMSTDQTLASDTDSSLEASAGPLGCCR
The nature of data set [29]: Luminescence Cell-Based Dose Response HTS to Identify Activators of Luciferase Translation or Activity in H4 […] Cells. [Related pubchem assays: 1829 (Project Summary), 1814 (Primary HTS)]. It is filed as functional.
The nature of data set [30]: Luminescence Cell-Based Dose Response to Identify Activators of 5'UTR Stem-Loop Driven Prion Protein mRNA Translation in H4-C Neuroglioblastoma Cells. [Related pubchem assays: 1829 (Project Summary), 1814 (Primary HTS)]. It counts as functional.

Intestinal-type alkaline phosphatase (Mus musculus, UniProt P24822), sequence (P24822 whole entry): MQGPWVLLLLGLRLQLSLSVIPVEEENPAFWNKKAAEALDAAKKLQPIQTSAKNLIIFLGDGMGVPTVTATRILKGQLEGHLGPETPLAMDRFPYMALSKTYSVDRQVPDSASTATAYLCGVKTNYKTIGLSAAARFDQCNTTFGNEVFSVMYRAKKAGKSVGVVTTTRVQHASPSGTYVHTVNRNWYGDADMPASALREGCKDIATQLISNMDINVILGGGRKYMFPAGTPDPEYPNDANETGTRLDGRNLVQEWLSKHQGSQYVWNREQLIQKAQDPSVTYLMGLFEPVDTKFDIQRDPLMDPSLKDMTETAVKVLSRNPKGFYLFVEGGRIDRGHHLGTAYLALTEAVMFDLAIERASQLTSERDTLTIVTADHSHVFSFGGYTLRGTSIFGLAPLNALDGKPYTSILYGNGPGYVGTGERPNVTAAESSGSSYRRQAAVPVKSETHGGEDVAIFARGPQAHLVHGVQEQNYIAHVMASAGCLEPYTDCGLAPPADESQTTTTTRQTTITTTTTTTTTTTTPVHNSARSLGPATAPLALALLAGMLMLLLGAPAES
Cytochrome P450 2C9, sequence (P11712 whole entry): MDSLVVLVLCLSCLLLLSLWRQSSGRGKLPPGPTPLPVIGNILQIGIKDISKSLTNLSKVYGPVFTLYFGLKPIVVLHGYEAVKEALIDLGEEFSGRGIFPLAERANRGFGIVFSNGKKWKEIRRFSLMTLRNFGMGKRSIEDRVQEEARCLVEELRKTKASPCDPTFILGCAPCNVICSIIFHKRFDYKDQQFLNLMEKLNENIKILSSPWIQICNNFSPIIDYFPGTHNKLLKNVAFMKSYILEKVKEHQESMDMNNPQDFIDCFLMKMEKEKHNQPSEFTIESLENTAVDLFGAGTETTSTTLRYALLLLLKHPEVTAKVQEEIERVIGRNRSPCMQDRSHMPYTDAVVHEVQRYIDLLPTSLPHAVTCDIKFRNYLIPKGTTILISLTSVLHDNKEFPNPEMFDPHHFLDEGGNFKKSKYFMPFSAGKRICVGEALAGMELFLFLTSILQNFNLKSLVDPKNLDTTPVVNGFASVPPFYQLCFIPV

`COc1cccc(N2CCN(C(=O)c3ccc(C[S+]([O-])c4ccccc4C)o3)CC2)c1` (stereo not given): the EC50 in data set [1] was 1.2 µM (active); in data set [2], > 12 µM (not active); in [3] it was 2.01 µM (active); in data set [4], 1.06 µM (active); in data set [5], < 100 nM (active); in [6] it was 35 µM (active). Besides, the EC50 in data set [7] is 325 nM (active); in data set [8], 9.12 µM (active); in data set [9], 946 nM (active); in data set [10] it was 1.59 µM (active); in data set [12] it was 7.05 µM (active); in data set [13] it was 22.5 µM (active). Moreover, the figures for the EC50 in [14], in data set [15] and in data set [16] were 22.5 µM (inconclusive), 325 nM (inconclusive) and 946 nM (inconclusive), respectively. In [11], the IC50 is > 80 µM (inactive).
`Cn1c(=O)cc(SCC(=O)NCCN2CCN(c3ccccc3F)CC2)c2cc(Cl)ccc21`: the results for the EC50 in [17], in data set [18] and in data set [21] were > 79.4 µM (not active), 33.2 µM (inactive) and 7.9 µM (active), respectively. Besides, the figures for the AC50 result in [19] and in data set [20] were “inconclusive” and 39.8 µM (inconclusive), respectively.
Consider `OCCCN1c2ccccc2Nc2nnc(-c3ccccc3)cc21`, for which the IC50 in data set [22] was > 100 µM (inactive); in [24], > 100 µM (inactive); in data set [25], 10.3 µM (active); in [28], > 31 µM (not active). Besides, the EC50 is 424 nM (active) in data set [23]; 1.97 µM (active) in [26]; > 12 µM (not active) in data set [27]; < 100 nM (inconclusive) in data set [29]; 549 nM (active) in [30].
